Assay [1] has as its target T1, full-length MALT1 protein His-MALT1(1-824) (Homo sapiens, UniProt Q9UDY8).
T1 construct: full-length MALT1 protein His-MALT1(1-824); His (N); made in house; host or cells: baculovirus-infected insect cells
T1 sequence (Q9UDY8 1-824): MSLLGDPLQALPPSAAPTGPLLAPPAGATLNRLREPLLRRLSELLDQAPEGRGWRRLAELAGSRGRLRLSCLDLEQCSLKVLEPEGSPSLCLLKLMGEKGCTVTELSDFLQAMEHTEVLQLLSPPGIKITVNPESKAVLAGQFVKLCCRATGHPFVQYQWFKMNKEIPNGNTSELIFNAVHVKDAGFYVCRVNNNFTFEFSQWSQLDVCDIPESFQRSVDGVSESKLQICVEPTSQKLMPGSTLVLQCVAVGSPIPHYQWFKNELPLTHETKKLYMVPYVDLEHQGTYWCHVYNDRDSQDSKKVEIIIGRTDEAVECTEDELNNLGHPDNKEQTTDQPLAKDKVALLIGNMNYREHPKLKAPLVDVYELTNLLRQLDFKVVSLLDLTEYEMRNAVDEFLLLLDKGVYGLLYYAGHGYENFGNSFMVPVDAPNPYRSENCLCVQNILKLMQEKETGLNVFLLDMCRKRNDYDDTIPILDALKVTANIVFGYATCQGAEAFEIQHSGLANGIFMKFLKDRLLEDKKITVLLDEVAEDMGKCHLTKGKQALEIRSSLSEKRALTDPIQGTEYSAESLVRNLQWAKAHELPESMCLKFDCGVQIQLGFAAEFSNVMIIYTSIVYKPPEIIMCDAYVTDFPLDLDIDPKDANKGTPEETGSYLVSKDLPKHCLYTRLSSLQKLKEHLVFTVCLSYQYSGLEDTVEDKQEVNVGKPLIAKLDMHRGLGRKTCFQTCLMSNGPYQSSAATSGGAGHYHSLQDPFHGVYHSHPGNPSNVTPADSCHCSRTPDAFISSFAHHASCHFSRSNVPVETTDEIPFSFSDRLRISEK
Description: MALT1 protease assay, Assay 2 (1 nM MALT1, Ac-LRSR-AMC substrate). Conditions: 1 nM MALT1, 50 μM Ac-LRSR-AMC, 2 h pre-incubation, 8 hr incubation at RT. It is filed as biochemical. In a few lines: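 Full-length His-MALT1(1-824) from baculovirus-infected insect cells, pre-incubated with compound 2 h at RT (0.1% DMSO). Then 50 μM Ac-LRSR-AMC added. Buffer was Tris pH 7.5 with 600 mM sodium citrate, DTT, EDTA and BSA. Fluorescence (ex 355/em 460 nm) was read after 8 h at RT and normalized to high/low controls. IC50 from non-linear regression.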

Assay [2] relates to IL10 secretion in OCI-LY10 cells. Put plainly: Human IL10 secretion assay, Assay 2 (MSD). Conditions: Homo sapiens, 24 h incubation, Meso Scale Discovery, read-out: IL-10 Secretion IC50 [nM] Assay 2. In kind it is cell-based. The procedure:
IL10 is one of the cytokines that are regulated via activation of NF-kB signaling. For example, in ABC-DLBCL cell lines, the activated NF-kB signaling leads to increased IL10 secretion. Inhibition of NF-kB signaling has been shown leading to decreased IL10 secretion.
Assay 2: OCI-LY10 cells were seeded in IMEM supplemented with 20% fetal bovine serum at 4.8×10^5 cells per 160 μL per well in 96-well V-bottom cell culture plates (corning, 3894), treated with 120 nL of 3-fold serial compound dilutions, starting at 4 mM. The final vehicle concentration was 0.075% DMSO in all wells. After a 24 h incubation, human IL-10 precoated plates (Meso Scale Discovery) were washed 3 times with PBST, and 50 μL culture medium was aspirated into the MSD plate and incubated at 4° C. overnight. The supernatant was then discarded, and the wells were washed 3 times with PB ST. SULFO-TAG Anti-human IL-10 Antibody (50×) was diluted 50-fold according to the Meso Scale Protocol, then 25 μL of SULFO-TAG Anti-human IL-10 Antibody (1×) was added. After 2 h of incubation at RT, the supernatant was discarded, and the well was washed 3 times with PBST. 2×read buffer was added and the signal was read on an MSD Sector S600. The effect of a particular compound on IL10 secretion is shown relative to the effect of DMSO; set as 100%. IC50 values (nM) were determined using 4-parametric curve-fitting.

Broadly, the IC50 is the concentration needed to halve the response being measured. Regarding `CC1(C)CC(C(=O)Nc2cnc(-n3nccn3)c(C(F)(F)F)c2)c2cnc3cc(F)nn3c21` (single isomer, unassigned) [Example 151, N-(6-(2H-1,2,3-triazol-2-yl)-5-(trifluoromethyl)pyridin-3-yl)-2-fluoro-8,8-dimethyl-7,8-dihydro-6H-cyclopenta[e]pyrazolo[1,5-a]pyrimidine-6-carboxamide], the IC50 in assay [1] is less than 10 nM; in assay [2], 10 to 100 nM.
`Cc1cc2cc(F)c3c(n2n1)C(C)(C)CC3C(=O)Nc1cnc(-n2nccn2)c(Cl)c1` (single isomer, unassigned) [Example 157, N-(5-chloro-6-(2H-1,2,3-triazol-2-yl)pyridin-3-yl)-5-fluoro-2,8,8-trimethyl-7,8-dihydro-6H-cyclopenta[e]pyrazolo[1,5-a]pyridine-6-carboxamide]: the IC50 in assay [1] was 10 to 100 nM; in assay [2], not below 1000 nM.
In the same order, the values of `CC1(C)CC(C(=O)Nc2cnc(-n3nccn3)c(Cl)c2)c2cnc3c(F)cnn3c21` (single isomer, unassigned) [Example 101, N-(5-chloro-6-(2H-1,2,3-triazol-2-yl)pyridin-3-yl)-3-fluoro-8,8-dimethyl-7,8-dihydro-6H-cyclopenta[e]pyrazolo[1,5-a]pyrimidine-6-carboxamide] are 10 to 100 nM and 100 to 1000 nM.
On to `CC1(C)C[C@H](C(=O)Nc2cnc(OC(F)F)c(Cl)c2)c2cnc3cc(F)nn3c21` (single isomer, unassigned) [Example 77, N-(5-chloro-6-(difluoromethoxy)pyridin-3-yl)-2-fluoro-8,8-dimethyl-7,8-dihydro-6H-cyclopenta[e]pyrazolo[1,5-a]pyrimidine-6-carboxamide], for which the figures for the IC50 in assay [1] and in assay [2] were less than 10 nM and 10 to 100 nM, respectively.
On the same counts, the results for `CN(C(=O)c1ncc(NC(=O)[C@H]2CC(C)(C)c3c2cnc2cc(Cl)nn32)cc1C(F)F)C1CC1` (single isomer, unassigned) [Example 73, 2-chloro-N-(6-(cyclopropyl(methyl)carbamoyl)-5-(difluoromethyl)pyridin-3-yl)-8,8-dimethyl-7,8-dihydro-6H-cyclopenta[e]pyrazolo[1,5-a]pyrimidine-6-carboxamide] are less than 10 nM and 10 to 100 nM.
Take `CC1(C)CC(C(=O)Nc2cnc(-n3nccn3)c(Cl)c2)c2cnc3c(F)c(F)nn3c21` (single isomer, unassigned) [Example 122, N-(5-chloro-6-(2H-1,2,3-triazol-2-yl)pyridin-3-yl)-2,3-difluoro-8,8-dimethyl-7,8-dihydro-6H-cyclopenta[e]pyrazolo[1,5-a]pyrimidine-6-carboxamide]: the IC50 in assay [1] is less than 10 nM; in assay [2], 100 to 1000 nM.
In the case of `CC1(C)CC(C(=O)Nc2cnc(-n3ncc(C4COC4)n3)c(Cl)c2)c2cnc3cc(Cl)nn3c21` (single isomer, unassigned) [Example 111, 2-chloro-N-(5-chloro-6-(4-(oxetan-3-yl)-2H-1,2,3-triazol-2-yl)pyridin-3-yl)-8,8-dimethyl-7,8-dihydro-6H-cyclopenta[e]pyrazolo[1,5-a]pyrimidine-6-carboxamide], the IC50 in assay [1] was less than 10 nM; in assay [2] it was 10 to 100 nM.
For `CC1(C)CC(C(=O)Nc2cc(N=S(C)(C)=O)nc(C(F)(F)F)c2)c2cnc3cc(F)nn3c21` (single isomer, unassigned) [Example 128, N-(2-((dimethyl(oxo)-λ^6-sulfaneylidene)amino)-6-(trifluoromethyl)pyridin-4-yl)-2-fluoro-8,8-dimethyl-7,8-dihydro-6H-cyclopenta[e]pyrazolo[1,5-a]pyrimidine-6-carboxamide], the half-inhibitory concentration (IC50) in assay [1] fell in the range of 10 to 100 nM; in assay [2], 100 to 1000 nM.
On the same counts, the results for `C[C@@]1(C(F)(F)F)C[C@H](C(=O)Nc2cnc(-n3nccn3)c(C(F)F)c2)c2cnc3cc(Cl)nn3c21` (single isomer, unassigned) [Example 64, 2-chloro-N-(5-(difluoromethyl)-6-(2H-1,2,3-triazol-2-yl)pyridin-3-yl)-8-methyl-8-(trifluoromethyl)-7,8-dihydro-6H-cyclopenta[e]pyrazolo[1,5-a]pyrimidine-6-carboxamide] are 10 to 100 nM and 100 to 1000 nM.
In the same order, the values of `O=C(Nc1cnc(-n2nccn2)c(C(F)(F)F)c1)C1CC2(CC2)c2c1cnc1cc(Cl)nn21` (single isomer, unassigned) [Example 149, N-(6-(2H-1,2,3-triazol-2-yl)-5-(trifluoromethyl)pyridin-3-yl)-2-chloro-6,7-dihydrospiro[cyclopenta[e]pyrazolo[1,5-a]pyrimidine-8,1′-cyclopropane]-6-carboxamide] are 10 to 100 nM and 100 to 1000 nM.
With `CC1(C)CC(C(=O)Nc2cnc(-n3nccn3)c(Cl)c2)c2cnn3cc(Cl)nc3c21` (single isomer, unassigned) [Example 195, 2-chloro-N-(5-chloro-6-(2H-1,2,3-triazol-2-yl)pyridin-3-yl)-9,9-dimethyl-8,9-dihydro-7H-cyclopenta[d]imidazo[1,2-b]pyridazine-7-carboxamide], the concentration for half-maximal inhibition (IC50) in assay [1] was less than 10 nM; in assay [2] it was 10 to 100 nM.
On to `CC1(C)CC(C(=O)Nc2cnc(OC(F)F)c(Cl)c2)c2cnn3cc(Cl)nc3c21` (single isomer, unassigned) [Example 191, 2-chloro-N-(5-chloro-6-(difluoromethoxy)pyridin-3-yl)-9,9-dimethyl-8,9-dihydro-7H-cyclopenta[d]imidazo[1,2-b]pyridazine-7-carboxamide], for which the 50% inhibitory concentration (IC50) was less than 10 nM in assay [1] and 100 to 1000 nM in assay [2].
On the same counts, the results for `Cc1cn2ncc3c(c2n1)C(C)(C)CC3C(=O)Nc1cnc(-n2nccn2)c(Cl)c1` (single isomer, unassigned) [Example 189, N-(5-chloro-6-(2H-1,2,3-triazol-2-yl)pyridin-3-yl)-2,9,9-trimethyl-8,9-dihydro-7H-cyclopenta[d]imidazo[1,2-b]pyridazine-7-carboxamide] are less than 10 nM and 100 to 1000 nM.
On the same counts, the results for `CC1(C)CC(C(=O)Nc2cnc(-n3nccn3)c(C(F)F)c2)c2cnc3cc(Cl)nn3c21` (single isomer, unassigned) [Example 47, 2-chloro-N-(5-(difluoromethyl)-6-(2H-1,2,3-triazol-2-yl)pyridin-3-yl)-8,8-dimethyl-7,8-dihydro-6H-cyclopenta[e]pyrazolo[1,5-a]pyrimidine-6-carboxamide] are less than 10 nM and 100 to 1000 nM.
Take `CC1(C)CC(C(=O)Nc2cnc(OC(F)F)c(C#N)c2)c2cnc3c(F)c(F)nn3c21` (single isomer, unassigned) [Example 91, N-(5-cyano-6-(difluoromethoxy)pyridin-3-yl)-2,3-difluoro-8,8-dimethyl-7,8-dihydro-6H-cyclopenta[e]pyrazolo[1,5-a]pyrimidine-6-carboxamide]: the IC50 in assay [1] lay in the range of 10 to 100 nM; in assay [2] it was 100 to 1000 nM.
Consider `Cn1nnnc1-c1ncc(NC(=O)C2CC(C)(C)c3c2cnc2cc(Cl)nn32)cc1Cl` (single isomer, unassigned) [Example 145, 2-chloro-N-(5-chloro-6-(1-methyl-1H-tetrazol-5-yl)pyridin-3-yl)-8,8-dimethyl-7,8-dihydro-6H-cyclopenta[e]pyrazolo[1,5-a]pyrimidine-6-carboxamide], for which the concentration for half-maximal inhibition (IC50) in assay [1] is less than 10 nM; in assay [2], 100 to 1000 nM.
